The record followed here is patent US20230227546A1, “TYPE 2 CYTOKINES AS PREDICTORS OF DISEASE SEVERITY AND/OR AS T[…] FOR COVID-19” (priority 2020, published 2023).

For this assay, the system named is COVID-19. Type of assay: in vivo, human.

In the case of “Dupilumab: anti-human IL4Rα monoclonal antibody that blocks IL-13 and IL-4 signaling; sold as DUPIXENT”, under “31 patients”, the “Deceased (number of patients) With Concurrent Dupilumab” value is recorded as 0 and the “Ventilated (number of patients) With Concurrent Dupilumab” value is listed as 0. For the same substance, the “Hospitalized (number of patients) With Concurrent Dupilumab” value (31 patients, values less than 20 suppressed) is below 20. Moreover, the “Odds Ratio, Hospitalized” value (Dupilumab vs matched controls 1:5, conditional logistic regression) came to 0.64. Besides, under “compared to matched controls”, the rate of death result is “lower rate”, the rate of hospitalization result was “lower rate” and the rate of ventilation entry is reported as “lower rate”.
